Reference: patent US9580430B2, “9H-pyrimido[4,5-B]indoles and related analogs as BET bromodomain inhibitors” (THE REGENTS OF THE UNIVERSITY OF MICHIGAN, priority 2014, dated 2017)

What was measured:
[1] = test system: VCaP prostate cancer cells; test: Cell growth inhibition, VCaP prostate cancer cells (Cell-Titer GLO); type: cell-based; conditions: 8 days; FIG. 22
Procedure: For prostate cancer cell lines, VCaP prostate cancer cells were grown in DMEM with Glutamax (Gibco) supplemented with 10% FBS (Invitrogen) in 5% CO2 cell culture incubator. All cell lines were tested and found to be free of mycoplasma contamination. Cells were seeded in 96-well plates at 2,000-10,000 cells per well (optimum density for growth) in a total volume of […] media containing 10% FBS. Serially diluted compounds in […] media were added to the cells 12 h later. […] The values were normalized and IC50 was calculated using GraphPad Prism software.
(§1) Cells were seeded in 96-well plates at 2000-10,000 cells/well (optimum density for growth) in a total volume of 100 μl media containing 10% FBS. Serially diluted compounds in 100 μl media were added to the cells 12 h later. Following 96 h. incubation, cell viability was assessed by Cell-Titer GLO (Promega). The values were normalized and IC50 was calculated using GraphPad Prism software. […] After 12 days cells were fixed with methanol, stained with crystal violet and photographed. For colorimetric assays, the stained wells were treated with 500 μl 10% acetic acid and the absorbance was measured at 560 nm using a spectrophotometer.

[2] = test system: AR-positive cells; test: Long-term colony formation assay; type: cell-based; conditions: 100 nM, 12 days, FIG. 3
Procedure: as §1

[3] = test system: AR; test: ChIP-seq of AR in DHT-stimulated VCaP cells; type: cell-based; conditions: DHT 10 nM plus JQ1 500 nM, MDV3100 10 μM or Bicalutamide 25 μM, FIG. 17
Procedure: The ChIP assays for BRD2, BRD3, BRD4, AR, RNA PolII, ERG and H3K27ac were performed using HighCell ChIP kit (Diagenode) according to manufacturer's protocol. […] Next, cells were cross-linked for 10 min. with 1% formaldehyde. […] Chromatin equivalent to 5×10^6 cells were used for ChIP using different antibodies. ChIP DNA was isolated (IPure Kit, Diagenode) from samples by incubation with the antibody at 4° C. overnight followed by wash and reversal of cross-linking. The ChIP-seq sample preparation for sequencing was performed according to the manufacturer's instructions (Illumina). […] A single A-base was added to fragment ends by Klenow fragment (3′ to 5′ exo minus; NEB) followed by ligation of Illumina adaptors (Quick ligase, NEB). The adaptor-modified DNA fragments were enriched by PCR using the Illumina Barcode primers and Phusion DNA polymerase (NEB). PCR products were size selected using 3% NuSieve agarose gels (Lonza) followed by gel extraction using QIAEX II reagents (QIAGEN). Libraries were quantified with the Bioanalyzer 2100 (Agilent) and sequenced on the Illumina HiSeq 2000 Sequencer (100 nucleotide read length).
For enrichment plots shown in FIGS. 17, 19 and 20, identified peaks for each sample are centered by peak summit and average coverage per million was counted within 1500 bp relative to the peak center.

[4] = test system: castration-resistant VCaP tumor xenografts; test: Castration-resistant VCaP tumor xenograft (CRPC experiment); type: in vivo; conditions: castrated mice; 50 mg/kg, 5 days/week; FIG. 26
Procedure: (§2) Four week-old male SCID C.B17 mice were procured from a breeding colony at University of Michigan. All procedures involving mice were approved by the University Committee on Use and Care of Animals (UCUCA) at the University of Michigan and conform to all regulatory standards. Mice were anesthetized using 2% Isoflurane (inhalation) and 2×10^6 VCaP prostate cancer cells suspended in 100 μl of PBS with 50% Matrigel (BD Biosciences) were implanted subcutaneously into the dorsal flank on both sides of the mice. […] Growth in tumor volume was recorded using digital calipers and tumor volumes were estimated using the formula (π/6) (L×W^2), where L=length of tumor and W=width. Loss of body weight during the course of the study was also monitored. At the end of the studies mice were sacrificed and tumors extracted and weighed. Additionally, femur bone marrow, liver and spleen were harvested to examine spontaneous metastasis by detecting human-Alu sequence. […] All procedures involving mice were approved by the University Committee on Use and Care of Animals (UCUCA) at the University of Michigan and conform to all regulatory standards.

[5] = test system: MYC signature; test: Gene expression array, GSEA of MYC signature, 22RV1; type: cell-based; conditions: 22RV1 after JQ1 treatment
Procedure: (§3) Cells treated with only vehicle or 10 nM DHT served as controls. […] Expression profiling was performed using the Agilent Whole Human Genome Oligo Microarray (SantaClara, Calif.) according to the manufacturer's protocol. All samples were run in technical duplicates or quadruplets against control. Over- and under-expressed gene sets were generated by filtering to include only 2-fold average over- or underexpression (Log ratio with p<0.001) in all hybridizations.

[6] = Prostate histology and hormone measurement in mice; type: in vivo
Procedure: Highly hormone responsive seminal vesicles attached to prostate were harvested from mice after four weeks of injection. Prostate were fixed in formalin solution and processed for sectioning. Standard H&E staining was achieved on the formalin fixed sections and were used to image the different lobes of the gland. To determine the testosterone levels, blood samples were collected by cardiac puncture from mice anesthetized with isoflurane. The serum was separated from the blood and stored at −80° C. until assayed. Serum testosterone levels were measured by the Ligand Assay at University of Michigan-ULAM Pathology Cores for Animal Research.

[7] = test system: VCaP or LNCaP cells; test: Matrigel invasion assay, VCaP or LNCaP cells; type: cell-based; conditions: 500 nM
Procedure: Medium containing 10% FBS in the lower chamber served as chemoattractant. […] After 48 h, the non-invading cells and EC matrix were gently removed with a cotton swab and invasive cells located on the lower side of the chamber were stained with crystal violet, air dried, photographed and counted.

[8] = test system: MYC signature; test: Gene expression array, GSEA of MYC signature, VCaP; type: cell-based; conditions: VCaP after JQ1 treatment
Procedure: as §3

[9] = test system: VCaP tumor xenograft
Procedure: as §2

[10] = test system: VCaP xenograft model; test: Spontaneous metastasis in the VCaP xenograft model (human Alu qPCR); type: in vivo, mice; conditions: femur, liver and spleen; JQ1 50 mg/kg, MDV3100 10 mg/kg
Procedure: as §2

[11] = gene set SCHLOSSER_MYC_AND_SERUM_RESPONSE_SYNERGY
[12] = gene set SCHLOSSER_MYC_TARGETS_AND_SERUM_RESPONSE_UP
[13] = gene set SCHUHMACHER_MYC_TARGETS_UP

In the case of `Cc1sc2c(c1C)C(c1ccc(Cl)cc1)=N[C@@H](CC(=O)OC(C)(C)C)c1nnc(C)n1-2` [JQ1], the “VCaP cell viability in vitro” value [1] is reported as “suppression of cell growth at sub-micromolar concentrations”, the long term colony-formation [2] is reported as “severely inhibited” and the “recruitment of AR to target loci” value [3] is reported as “block AR recruitment to a level almost equivalent to MDV3100”. The “reduction in castration-resistant tumors” value [4] was 50%, the NES ([5]; gene set MYC_UP.V1_UP) was −1.712 and the NES [5, 11] was −1.521. The NES [5, 12] was 1.353, the NES [5, 13] was −1.851 and the physiologic androgen-regulated processes [6] was “No effect on physiologic androgen-regulated processes”. The testes size [6] was “reduced testes size”, the cell invasion [7] was “inhibited invasion” and the NES ([8]; gene set MYC_UP.V1_UP) was −2.265. For the same compound, the NES [8, 11] was −1.818, the NES [8, 12] was −1.824 and the NES [8, 13] was −2.275. For the same compound, the tumor volume/weight ([9]; VCaP tumor-bearing mice, JQ1 50 mg/kg, MDV3100 10 mg/kg, 5 days/week, FIGS. 23-25) was “significant reduction in tumor volume/weight”, the tolerability ([9]; mouse, in vivo) was “well tolerated” and the spontaneous metastasis [10] was “no evidence of metastasis”.
